The values below come from patent US20080267882A1, “Imaging compounds, methods of making imaging compounds, methods of imaging, therapeutic compounds, methods of making therapeutic compounds, and methods of therapy” (Stanford University, priority 2007, published 2008).

Where two headings read alike, the source gives them in different places.

In data set [1] the test system is U87MG tumor-bearing mice. The data set is described as follows: in vivo. The conditions noted are these: mouse; for U87MG tumor uptake: iv, 3.7 MBq. The procedure: (§1) PET scans and image analysis were performed using a microPET R4 rodent model scanner (Siemens Medical Solutions) as previously reported (J Nucl Med 2006;47:113-121 and J Nucl Med 2005;46:1707-1718, each of which is incorporated herein by reference for the corresponding discussion). Each mouse was tail-vein injected with about 3.7 MBq (100 μCi) of ^18F-FPRGD2 under isoflurane anesthesia. The 30-min dynamic scan (1×30 s, 4×1 min, 1×1.5 min, 4×2 min, 1×2.5 min, 4×3 min, total of 15 frames) was started 1 min after injection. Five min static PET images were also acquired at 1 h and 2 h post-injection (p.i.). The images were reconstructed by a 2-dimensional ordered-subsets expectation maximum (OSEM) algorithm and no correction was applied for attenuation or scatter.
(§2) PET scans and image analysis were performed using a microPET R4 rodent model scanner (Siemens Medical Solutions) as previously reported. For U87MG tumor model, mice (n=3) were tail-vein injected with about 3.7 MBq (100 μCi) of ^18F-FPRGD4 under isoflurane anesthesia and then subjected to a 30-min dynamic scan (1×30 s, 4×1 min, 1×1.5 min, 4×2 min, 1×2.5 min, 4×3 min, total of 15 frames) starting from 1 min p.i. Five min static PET images were also acquired at 1, 2, and 3 h p.i. The images were reconstructed by 2-dimensional ordered-subsets expectation maximum (OSEM) algorithm. No attenuation or scatter correction was applied. […] The 5-min static PET scans was then acquired at 30 min and 1 h p.i. Multiple time point static scans were also obtained for orthotopic MDA-MB-435, c-neu oncomouse, and subcutaneous DU145 tumor models after tail-vein injected with 3.7 MBq of ^18F-FPRGD4.
(§3) For each microPET scan, regions of interest (ROIs) were drawn over the tumor, normal tissue, and major organs by using vendor software (ASI Pro 5.2.4.0) on decay-corrected whole-body coronal images. The maximum radioactivity concentration (accumulation) within a tumor or an organ was obtained from mean pixel values within the multiple ROI volume, which were converted to counts/mL/min by using a conversion factor. Assuming a tissue density of 1 g/mL, the ROIs were converted to counts/g/min and then divided by the administered activity to obtain an imaging ROI-derived % ID/g. […]
(§4) PET scans and image analysis were performed using a microPET R4 rodent model scanner (Siemens Medical Solutions) as previously reported (J Nucl Med. 2005;46:1707-1718 and J Nucl Med. 2006;47:113-121, each of which is incorporated herein by reference for the corresponding discussion). About 9.3 MBq of ^64Cu-DOTA-RGD multimer was intravenously injected into each mouse under isoflurane anesthesia. Five minute static scans were acquired at 30 min, 1 h, 2 h, 6 h, and 20 h p.i. The images were reconstructed by a 2-dimensional ordered-subsets expectation maximum (OSEM) algorithm and no correction was applied for attenuation and scatter. For each microPET scan, regions of interest (ROIs) were drawn over the tumor, normal tissue, and major organs on decay-corrected whole-body coronal images. The radioactivity concentration (accumulation) within a tumor was obtained from the maximum value within the multiple ROIs and then converted to % ID/g.
(§5) PET scans and image analysis were performed using a microPET R4 rodent model scanner (Siemens Medical Solutions) as previously reported (J Nucl Med. 2006;47:113-21 and J Nucl Med. 2005;46:1707-18, which is incorporated herein by reference for the corresponding discussion). […] The 60-min dynamic scan (5×1 min, 10×3 min, 5×5 min, total of 20 frames) was started 1 min after injection. A 2 h time point static scan was also acquired after the 60 min dynamic scan. Five min static PET images were also acquired separately at 30 min, 1 h and 2 h time points post-injection (p.i.) for another set of tumor-bearing mice (n=3/tracer). The images were reconstructed by a 2-dimensional ordered-subsets expectation maximum (OSEM) algorithm and no correction was necessary for attenuation or scatter correction. […]

For data set [2] the following is noted: mouse, in vivo. The procedure: A U87MG tumor mouse was intravenously injected with 3.7 MBq of ^18F-FPRGD2. At 1 h after injection, the mouse was sacrificed, the blood, urine, liver, kidneys, and the U87MG tumor were collected and metabolite analysis was carried out as previously reported (J Nucl Med 2006;47: 113-121 and J Nucl Med 2006;47:1172-1180, each of which is incorporated herein by reference for the corresponding discussion). In brief, blood sample was immediately centrifuged for 5 min at 13,200 rpm. Other tissues were homogenized and then centrifuged for 5 min at 13,200 rpm. The supernatant was each passed through a C18 Sep-Pak cartridge. The urine sample was directly diluted with 1 mL of PBS and passed through a C18 Sep-Pak cartridge. The cartridges were each washed with 2 mL of water and eluted with 2 mL of ACN containing 0.1% TFA. The ACN eluent was concentrated and injected onto the analytical HPLC. The eluent was collected with a fraction collector (0.5 min/fraction) and the radioactivity of each fraction was measured with the γ-counter.
The metabolic stability of ^18F-FPTA-RGD2 was evaluated in an athymic nude mouse bearing a U87MG tumor. Sixty min after intravenous injection of 2 MBq of ^18F-FPTA-RGD2, the mouse was sacrificed and relevant organs were harvested. The blood was collected and immediately centrifuged for 5 min at 13,200 rpm. Liver, kidneys and tumor were homogenized and then centrifuged for 5 min at 13,200 rpm. After removal of the supernatants, the pellets were washed with 1 mL PBS. For each sample, supernatants of both centrifugation steps of blood, liver, and kidneys were combined and passed through C18 Sep-Pak cartridges. The urine sample was directly diluted with 1 mL of PBS and passed through a C18 Sep-Pak cartridge. The cartridges were each washed with 2 mL of water and eluted with 2 mL of ACN containing 0.1% TFA. After evaporation of the solvent, the residues were redissolved in 1 mL PBS and were injected onto the analytical HPLC. The eluent was collected with a fraction collector (0.5 min/fraction) and the radioactivity of each fraction was measured with the γ-counter.

A short description of data set [3]: in vivo. To be noted: mouse, iv, total radioactivity. The procedure: as §1, §2, §3, §4, §5
Data set [4] in a line: in vivo. The conditions noted are these: female, nude, mouse, total radioactivity. The procedure:
All mice were sacrificed and dissected at 1 h after injection of the tracer. Blood, tumor, major organs and tissues were collected and wet weighed. The radioactivity in the tissue was measured using a γ-counter (Packard). The results were presented as percentage injected dose per gram of tissue (% ID/g).

Data set [5] relates to U87MG cells. In words: cell adhesion assay on vitronectin coated plates. The data set is classed as cell-based, human. As for the experimental part: Ninety-six well plates were coated with 2 μg/mL of fibronectin or vitronectin (Sigma-Aldrich) in PBS at 4° C. overnight and treated with 2% bovine serum albumin (BSA) for 1 h at 37° C. U87MG cells (human glioblastoma, ATCC; 2×10^5 cells/mL) with various concentrations of RGD multimers (50 nM, 200 nM, 800 nM) in 100 μL serum-free Dulbecco's modified Eagle's medium (DMEM) containing 0.1% BSA were incubated for 20 min at 37° C. The resulting mixture was added to the plates and incubated for 1 h at 37° C. Plates treated with BSA only were used as negative control. After removal of the medium by aspiration, 0.04% crystal violet solution was added and incubated for 10 min at room temperature. The wells were washed three times with PBS and 20 μL Triton X-100 were added for permeabilization. Distilled water (80 μL) was then added and the number of adherent cells was assessed with a microplate reader (Tecan; measurement wavelength: 550 nm; reference wavelength: 630 nm).

Data set [6] addresses T1, integrin αvβ3 (Homo sapiens, UniProt P05106+P06756).
T1 construct: evaluated using U87MG cells (integrin αvβ3-positive); endogenous in cells; host or cells: U87MG human glioblastoma cells (ATCC)
In words: competitive cell binding assay using ^125I-echistatin on U87MG cells. The conditions noted are these: for IC50: n=3, read-out: IC50 (inhibition of ^125I-echistatin binding to U87MG cells). As for the experimental part: Experiments were performed on U87MG human glioblastoma cells with triplicate samples as previously reported.
In vitro integrin αvβ3-binding affinities and specificities of RGD4, PRGD4 and FPRGD4 were assessed via displacement cell binding assays using ^125I-echistatin as the integrin αvβ3-specific radioligand. Experiments were performed on U87MG human glioblastoma cells by the method previously described (J Nucl Med. 2005;46:1707-1718 J Nucl Med. 2006;47:1172-1180, which is incorporated herein by reference for the corresponding discussion). […] Experiments were performed with triplicate samples.
Experiments were performed with triplicate samples.
In vitro integrin-binding affinity and specificity of RGD multimers and DOTA-RGD multimers were assessed via competitive cell binding assays using ^125I-echistatin as the integrin αvβ3-specific radioligand (J Nucl Med. 2005;46:1707-1718, which is incorporated herein by reference for the corresponding discussion). […] Experiments were performed with triplicate samples.

Where [7] appears, read: athymic nude, 3.7 MBq, U87MG tumor uptake.
Where [8] appears, read: nude, 3.7 MBq, U87MG tumor uptake.
Setting [9] is: IC50 of RGD monomer divided by IC50 of RGD multimer.

Consider “^18F-FB-E[c(RGDyK)]2 [^18F-FRGD2, reference compound]”, for which the “residence time for kidneys” value in data set [1] came to 0.029 h.
“^18F-fluoro-PEG-triazole-E(RGDyK)2 [^18F-FPTA-RGD2]”: in data set [2], the “extraction efficiency (radioactivity in the supernatant)” value was 86-99% and the “non-retained fraction (activity not trapped on C18 cartridges)” value was 1-41%.
In the case of `N=C(N)NCCC[C@@H]1NC(=O)[C@H](CCCCNC(=S)Nc2ccc(C[C@H]3CN(CC(=O)O)CCN(CC(=O)O)CCN3CC(=O)O)cc2)NC(=O)[C@@H](Cc2ccc(O)cc2)NC(=O)[C@H](CC(=O)O)NC(=O)CNC1=O` [^68Ga-NOTA-RGD1, metal not drawn], in data set [3] (setting [7]), the tissue uptake (commonly the share of the injected amount in each gram of the tissue) at 0.5 h amounted to 1.9 ± 0.2 %ID/g, the tissue uptake at 1 h turned out to be 1.4 ± 0.2 %ID/g and the tissue uptake at 2 h worked out at 1.1 ± 0.1 %ID/g. Moreover, in data set [3] (setting [8]), the tissue uptake at 0.25 h stood at 2.35 %ID/g, the tissue uptake at 0.5 h is 1.84 %ID/g, the tissue uptake at 1 h is 1.47 %ID/g and the tissue uptake at 2 h stood at 1.12 %ID/g. Moreover, the U87MG tumor uptake in data set [1] (5 min) is recorded as 3.24 % ID/g.
`N=C(N)NCCC[C@@H]1NC(=O)[C@H](CCCCNC(=O)CC[C@H](NC(=S)Nc2ccc(C[C@H]3CN(CC(=O)O)CCN(CC(=O)O)CCN3CC(=O)O)cc2)C(=O)NCCCC[C@@H]2NC(=O)[C@@H](Cc3ccc(O)cc3)NC(=O)[C@H](CC(=O)O)NC(=O)CNC(=O)[C@H](CCCNC(=N)N)NC2=O)NC(=O)[C@@H](Cc2ccc(O)cc2)NC(=O)[C@H](CC(=O)O)NC(=O)CNC1=O` [^68Ga-NOTA-RGD2, metal not drawn]: the results for the tissue uptake at 0.5 h in data set [3] (setting [7]) and in data set [3] (setting [8]) were 2.6 ± 0.2 %ID/g and 2.79 %ID/g, respectively. Besides, the tissue uptake at 1 h in data set [3] (setting [7]) is 2.8 ± 0.11 %ID/g; in data set [3] (athymic nude, 3.7 MBq, kidney uptake), 2 %ID/g; in data set [3] (female, athymic nude, 10 mg/kg, U87MG tumor uptake with blocking) it was 0.31 ± 0.02 %ID/g; in data set [3] (setting [8]) it was 2.34 %ID/g; in data set [3] (nude, 3.7 MBq, kidney uptake), 4.6 %ID/g; in data set [4] (10 mg/kg, tumor uptake with blocking) it was 0.21 ± 0.03 %ID/g. For the same molecule, the tissue uptake at 1 h in data set [4] (3.7 MBq, kidney uptake) was 4.3 ± 0.25 %ID/g; in data set [4] (3.7 MBq, tumor uptake), 3.82 ± 0.7 %ID/g; in data set [4] (3.7 MBq, uptake values in the other major organs), at most 1 %ID/g. The figures for the tissue uptake at 2 h in data set [3] (setting [7]) and in data set [3] (setting [8]) were 1.7 ± 0.1 %ID/g and 1.89 %ID/g, respectively. Further, in data set [3] (setting [8]), the tissue uptake at 5 min was 4.39 %ID/g. The tissue uptake at 0.25 h in data set [3] (setting [8]) was 3.46 %ID/g. Besides, the U87MG tumor uptake in data set [1] (athymic nude, 1 h) worked out at 2.2±0.1 % ID/g.
On to `N=C(N)NCCC[C@@H]1NC(=O)[C@H](CCCCNC(=O)CC[C@H](NC(=O)CC[C@H](N)C(=O)N[C@@H](CCC(=O)NCCCC[C@@H]2NC(=O)[C@@H](Cc3ccc(O)cc3)NC(=O)[C@H](CC(=O)O)NC(=O)CNC(=O)[C@H](CCCNC(=N)N)NC2=O)C(=O)NCCCC[C@@H]2NC(=O)[C@@H](Cc3ccc(O)cc3)NC(=O)[C@H](CC(=O)O)NC(=O)CNC(=O)[C@H](CCCNC(=N)N)NC2=O)C(=O)NCCCC[C@@H]2NC(=O)[C@@H](Cc3ccc(O)cc3)NC(=O)[C@H](CC(=O)O)NC(=O)CNC(=O)[C@H](CCCNC(=N)N)NC2=O)NC(=O)[C@@H](Cc2ccc(O)cc2)NC(=O)[C@H](CC(=O)O)NC(=O)CNC1=O` [RGD4, E{E[c(RGDyK)]2}2], for which the “anti-adhesion multivalent enhancement ratio (MVE)” value in data set [5] (setting [9]) worked out at 8.4. The IC50 – broadly, the point on the concentration scale where inhibition reaches its midpoint – in data set [5] (vitronectin coated plates, n=4, read-out: calculated IC50 (inhibition of U87MG cell adhesion)) was 0.32 µM; in data set [6] (Example 2), 0.0391 ± 0.0055 µM; in data set [6] (Example 4), 0.035 µM. Besides, the “fold higher integrin αvβ3 avidity than the RGD dimer” value in data set [6] (Example 4) is recorded as “about 3 fold”. Besides, the “receptor binding multivalent enhancement ratio (MVE)” value in data set [6] (setting [9]) turned out to be 5.9.
